Read-outs that look alike come from different tables or passages of the source.
Biological target: JAK3 enzyme (Homo sapiens (Human), UniProt P52333)
Assay: JAK Caliper Enzyme Assay at 4 μM or 1 mM ATP
Assay type: biochemical
Procedure: JAK Caliper Enzyme Assay at […] or 1 mM ATP
Test article was solubilized in dimethyl sulfoxide (DMSO) to a stock concentration of 30 mM. An 11-point half log dilution series was created in DMSO with a top concentration of 600 μM. […] The compound plates were diluted 1 to 60 resulting in a top final assay compound concentration of 10 μM and a 2% DMSO concentration.
Test article and assay controls were added to a 384-well plate. Reaction mixtures contained 20 mM HEPES, pH 7.4, 10 mM magnesium chloride, 0.01% bovine serum albumin (BSA), 0.0005% Tween […] or 1 mM ATP and […] peptide substrate. […] The assays were initiated by the addition 1 nM JAK3 enzyme and were incubated at room temperature 75 minutes for JAK3. Enzyme concentrations and incubation times were optimized for each new enzyme preps and were modified slightly over time to ensure 20%-30% phosphorylation. The assays were stopped with a final concentration of 10 mM EDTA, 0.1% Coating Reagent and 100 mM HEPES, pH=7.4. The assay plates were placed on a Caliper Life Science Lab Chip 3000 (LC3000) instrument, and each well was sampled using appropriate separation conditions to measure the unphosphorylated and phosphorylated peptide.

[1] = read-out: JAK3 (4 μM ATP) IC50, 4 μM ATP
[2] = read-out: JAK3 (1 mM ATP) IC50, 1 mM ATP

Sequence of JAK3 enzyme (P52333 whole entry, species assumed): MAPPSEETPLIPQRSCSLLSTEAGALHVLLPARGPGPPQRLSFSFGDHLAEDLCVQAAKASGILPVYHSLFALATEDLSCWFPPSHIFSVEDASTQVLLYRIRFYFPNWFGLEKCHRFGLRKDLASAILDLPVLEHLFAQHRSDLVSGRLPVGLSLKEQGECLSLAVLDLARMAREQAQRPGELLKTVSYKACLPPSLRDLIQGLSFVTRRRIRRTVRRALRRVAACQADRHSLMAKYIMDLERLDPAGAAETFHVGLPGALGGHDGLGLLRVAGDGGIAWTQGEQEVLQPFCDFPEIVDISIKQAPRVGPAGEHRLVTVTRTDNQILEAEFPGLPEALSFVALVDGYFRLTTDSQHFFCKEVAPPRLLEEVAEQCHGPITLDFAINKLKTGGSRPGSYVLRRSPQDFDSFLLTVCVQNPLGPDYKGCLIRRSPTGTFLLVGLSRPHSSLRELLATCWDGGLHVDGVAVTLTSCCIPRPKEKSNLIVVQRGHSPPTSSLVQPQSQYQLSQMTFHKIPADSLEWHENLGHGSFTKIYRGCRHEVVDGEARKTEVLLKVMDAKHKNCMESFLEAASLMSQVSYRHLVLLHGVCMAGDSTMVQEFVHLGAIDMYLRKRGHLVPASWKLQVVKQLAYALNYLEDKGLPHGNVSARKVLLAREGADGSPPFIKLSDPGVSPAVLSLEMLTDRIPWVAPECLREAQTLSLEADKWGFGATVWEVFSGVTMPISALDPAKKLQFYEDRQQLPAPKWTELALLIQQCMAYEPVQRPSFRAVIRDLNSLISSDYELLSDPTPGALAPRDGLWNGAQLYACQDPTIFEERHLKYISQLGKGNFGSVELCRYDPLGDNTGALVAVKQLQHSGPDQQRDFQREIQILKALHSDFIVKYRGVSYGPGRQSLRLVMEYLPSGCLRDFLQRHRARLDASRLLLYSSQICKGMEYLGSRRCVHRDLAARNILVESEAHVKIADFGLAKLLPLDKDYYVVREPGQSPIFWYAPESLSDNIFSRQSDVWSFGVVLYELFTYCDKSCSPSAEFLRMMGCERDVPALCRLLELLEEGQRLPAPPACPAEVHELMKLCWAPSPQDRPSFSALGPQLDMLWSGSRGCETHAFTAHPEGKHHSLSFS

Row | Structure (SMILES) | IC50 [1] | IC50 [2]
1 | C=CC(=O)N1CC[C@@H](Nc2cnc3[nH]cc(C(=O)NC(C)C)c3n2)[C@H](OC)C1 [Example 305, 2-{[(3R,4R)-1-acryloyl-3-methoxypiperidin-4-yl]amino}-N-(propan-2-yl)-5H-pyrrolo[2,3-b]pyrazine-7-carboxamide] | 0.8 nM | 65 nM
2 | C=CC(=O)N1CC[C@H]2CCN(c3ncnc4[nH]cc(C(C)=O)c34)[C@H]2C1 [Example 111, 1-[(3aR,7aR)-1-(5-Acetyl-7H-pyrrolo[2,3-d]pyrimidin-4-yl)octahydro-6H-pyrrolo[2,3-c]pyridin-6-yl]prop-2-en-1-one] | 39.2 nM | 4740 nM
3 | C=CC(=O)N1CCC(Oc2cnc3[nH]cc(-c4cnc(OC)nc4)c3n2)CC1 [Example 219, 1-(4-{[7-(2-methoxypyrimidin-5-yl)-5H-pyrrolo[2,3-b]pyrazin-2-yl]oxy}piperidin-1-yl)prop-2-en-1-one] | 1.7 nM | 153 nM
4 | C=CC(=O)N1CC2(C1)CN(c1cnc3[nH]cc(C(=O)NC(C)C)c3n1)C2 [Example 310, 2-(6-acryloyl-2,6-diazaspiro[3.3]hept-2-yl)-N-(propan-2-yl)-5H-pyrrolo[2,3-b]pyrazine-7-carboxamide] | 117 nM | > 10000 nM
5 | C=CC(=O)N1CCC(Nc2cnc3[nH]cc(C(=O)NC4CCC4)c3n2)CC1 [Example 280, 2-[(1-acryloylpiperidin-4-yl)amino]-N-cyclobutyl-5H-pyrrolo[2,3-b]pyrazine-7-carboxamide] | 0.2 nM | 4 nM
6 | C/C=C/C(=O)N1CCC[C@@H](Nc2ncnc3[nH]cc(C(=O)N4CCCC4)c23)C1 [Example 147, (2E)-1-[(3R)-3-{[5-(pyrrolidin-1-ylcarbonyl)-7H-pyrrolo[2,3-d]pyrimidin-4-yl]amino}pipendin-1-yl]but-2-en-1-one] | > 10000 nM | 
7 | C=CC(=O)N1CCC(Oc2cnc3[nH]cc(-c4ccc(C#N)nc4)c3n2)CC1 [Example 216, 5-{2-[(1-acryloylpiperidin-4-yl)oxy]-5H-pyrrolo[2,3-b]pyrazin-7-yl}pyridine-2-carbonitrile] | 12.5 nM | 1030 nM
8 | C=CC(=O)N1CCC(Nc2cnc3[nH]cc(C(=O)N[C@H](C)COC)c3n2)CC1 [Example 268, 2-[(1-acryloylpiperidin-4-yl)amino]-N-[(2R)-1-methoxypropan-2-yl]-5H-pyrrolo[2,3-b]pyrazine-7-carboxamide] | 0.3 nM | 7.9 nM
9 | C=CC(=O)N1CCC[C@@H](Nc2ncnc3[nH]cc(CC(C)(C)O)c23)C1 [Example 53, (R)-1-(3-((5-(2-Hydroxy-2-methylpropyl)-7H-pyrrolo[2,3-d]pyrimidin-4-yl)amino)piperidin-1-yl)prop-2-en-1-one] | 4 nM | 192 nM
10 | C=CC(=O)N1CCC[C@@H](Nc2ncnc3[nH]cc(-c4cncc(F)c4)c23)C1 [Example 23, 1-[(3R)-3-{[5-(5-fluoropyridin-3-yl)-7H-pyrrolo[2,3-d]pyrimidin-4-yl]amino}piperidin-1-yl]prop-2-en-1-one] | 1.3 nM | 86.6 nM
11 | C=CC(=O)N1C[C@H](Nc2ncnc3[nH]cc(C#N)c23)CC[C@@H]1C [Example 163, 4-{[(3R,6S)-1-Acryloyl-6-methylpiperidin-3-yl]amino}-7H-pyrrolo[2,3-d]pyrimidine-5-carbonitrile] | 0.6 nM | 47.1 nM
12 | C=CC(=O)N1CCC(Nc2cnc3[nH]cc(-c4ccc(S(C)(=O)=O)cc4)c3n2)CC1 [Example 203, 1-[4-({7-[4-(methylsulfonyl)phenyl]-5H-pyrrolo[2,3-b]pyrazin-2-yl}amino)piperidin-1-yl]prop-2-en-1-one] | 2 nM | 148 nM
13 | C#CCNC(=O)c1c[nH]c2ncc(NC3CCN(C(=O)C=C)CC3)nc12 [Example 343, 2-((1-Acryloylpiperidin-4-yl)amino)-N-(prop-2-yn-1-yl)-5H-pyrrolo[2,3-b]pyrazine-7-carboxamide] | 0.1 nM | 3.4 nM
14 | C=CC(=O)N1CCC[C@H](Nc2ncnc3[nH]ccc23)C1 [Example 104, 1-[(3S)-3-(7H-pyrrolo[2,3-d]pyrimidin-4-ylamino)piperidin-1-yl]prop-2-en-1-one] | 64.5 nM | 
15 | C=CC(=O)N1CC2COCC(C1)N2c1cnc2[nH]cc(C(=O)NC(C)C)c2n1 [Example 324, 2-(7-acryloyl-3-oxa-7,9-diazabicyclo[3.3.1]non-9-yl)-N-(propan-2-yl)-5H-pyrrolo[2,3-b]pyrazine-7-carboxamide] | 37.5 nM | 3100 nM
16 | C=CC(=O)N1CCC(Nc2cnc3[nH]cc(C(=O)NC4CCCC4)c3n2)CC1 [Example 283, 2-[(1-acryloylpiperidin-4-yl)amino]-N-cyclopentyl-5H-pyrrolo[2,3-b]pyrazine-7-carboxamide] | 0.3 nM | 7.6 nM
17 | C=CC(=O)N[C@H]1C[C@H](Nc2cnc3[nH]cc(C(=O)NC(C)C)c3n2)C1 [Example 198, 2-{[trans-3-(acryloylamino)cyclobutyl]amino}-N-(propan-2-yl)-5H-pyrrolo[2,3-b]pyrazine-7-carboxamide] | 1 nM | 77.6 nM
18 | C=CC(=O)N1CCC(Nc2cnc3[nH]cc(C(=O)NC4CCC(F)(F)C4)c3n2)CC1 (stereo not shown) [Example 259, 2-[(1-acryloylpiperidin-4-yl)amino]-N-(3,3-difluorocyclopentyl)-5H-pyrrolo[2,3-b]pyrazine-7-carboxamide] | 0.2 nM | 11.1 nM
19 | C=CC(=O)N1CCC(Nc2cnc3[nH]cc(-c4ccnc(C)c4)c3n2)CC1 [Example 201, 1-(4-{[7-(2-methylpyridin-4-yl)-5H-pyrrolo[2,3-b]pyrazin-2-yl]amino}piperidin-1-yl)prop-2-en-1-one] | 0.5 nM | 28 nM
20 | C=CC(=O)N1CCC(Nc2cnc3[nH]cc(C(=O)NC45CC(C4)C5)c3n2)CC1 [Example 281, 2-[(1-acryloylpiperidin-4-yl)amino]-N-(bicyclo[1.1.1]pent-1-yl)-5H-pyrrolo[2,3-b]pyrazine-7-carboxamide] | 0.4 nM | 5.2 nM
21 | C=CC(=O)N1C[C@H](Nc2ncnc3[nH]cc(CCOC)c23)CC[C@@H]1C [Example 13, 1-((2S,5R)-5-((5-(2-Methoxyethyl)-7H-pyrrolo[2,3-d]pyrimidin-4-yl)amino)-2-methylpiperidin-1-yl)prop-2-en-1-one] | 0.4 nM | 60.6 nM
22 | C=CC(=O)N1CCN(c2cnc3[nH]cc(C(=O)NC(C)C)c3n2)C2(CC2)C1 [Example 313, 2-(7-acryloyl-4,7-diazaspiro[2.5]oct-4-yl)-N-(propan-2-yl)-5H-pyrrolo[2,3-b]pyrazine-7-carboxamide] | 1.4 nM | 183 nM
23 | C=CC(=O)N1[C@H](C)CN(c2cnc3[nH]cc(C(=O)NC(C)C)c3n2)C[C@@H]1C [Example 306, 2-[(3R,5S)-4-acryloyl-3,5-dimethylpiperazin-1-yl]-N-(propan-2-yl)-5H-pyrrolo[2,3-b]pyrazine-7-carboxamide] | 3.9 nM | 326 nM
24 | C=CC(=O)N1CCC(Oc2cnc3[nH]cc(C(=O)NC(C)C)c3n2)CC1 [Example 339, 2-((1-Acryloylpiperidin-4-yl)oxy)-N-isopropyl-5H-pyrrolo[2,3-b]pyrazine-7-carboxamide] | 0.2 nM | 17.5 nM
